A short description of data set [1]: Toxicity in xenografted mice: body weight, serum liver and kidney indices. The format is in vivo, BALB/c nude mice. An excerpt: (§1) Given the potent inhibitory effect of LTM-1 on MV-4-11 cell proliferation in vitro, a previously reported xenograft animal model was established to measure the anti-tumor growth and development effects of LTM-1 ([Zhou et al., 2022]). The animal experimental design of this study was reviewed and confirmed by the Ethics Committee of China Pharmaceutical University. The experimental procedures complied with the ARRIVE guidelines (https://arriveguidelines.org/). Female BALB/c nude mice aged 4–6 weeks were purchased from Changzhou Cave Animal Co., Ltd. (Changzhou, China). Mice were housed in a specific pathogen-free (SPF) environment, where the temperature was precisely regulated to 25°C ± 2°C, the relative humidity was kept at 50% ± 5%, and a strict 12-h light-dark cycle was maintained. A 200 μL suspension of MV-4-11 cells (1 × 10^6 cells) was injected subcutaneously into the mice. […] The mice were administered drugs via intraperitoneal injection daily, with a total treatment period of 15 days. Mouse weight and tumor volume were measured every 3 days. The tumor volume was calculated using the formula (c × c × d)/2 (where c represents the smallest diameter, and d represents the largest diameter). When the animals could no longer access food and/or the average tumor diameter exceeded 15 mm, the mice were anesthetized with 2.5% isoflurane and euthanized by cervical dislocation to minimize suffering. In addition, the liver and kidney index levels were measured using an automatic biochemical analyzer to evaluate the toxic effects of LTM-1 on mice.

Another data set deals with MV-4-11 xenograft. As to the kind of experiment: MV-4-11 xenograft model, anti-tumor activity. The format is in vivo, BALB/c nude mice. The conditions noted are these: 10 mg/kg intraperitoneal daily, 15 days, versus vehicle group.
Description: as §1, with “When the animals could no longer access food and/or the average tumor diameter exceeded 15 mm, the mice were anesthetized with 2.5% isoflurane and euthanized by cervical dislocation to minimize suffering.” left out

Another data set deals with 60 different kinases. As to the kind of experiment: SelectScreen kinase profiling, whole panel. Format: biochemical. As to conditions: ten-point dilution 0.25 μM to 128 μM; read-out: IC50 against each of the 60 evaluated kinases. How it is done:
The kinase selectivity analysis of LTM-1 was performed utilizing the SelectScreen Kinase Profiling Service offered by Thermo Fisher Scientific. In a dose-response assay featuring a ten-point dilution series from 0.25 μM to 128 μM, the inhibitory effects of LTM-1 on substrate phosphorylation reactions catalyzed by a panel of kinases were assessed. Consequently, the half-maximal inhibitory concentrations (IC50 values) for each kinase were determined.

The target in the next data set is T1, LSD1 (Homo sapiens, UniProt O60341).
T1 construct: Recombinant human LSD1 (172–852 aa); by word order LSD1 from Sino Biological
Nature of the data set: Lance Ultra LSD1 demethylase TR-FRET enzyme inhibition assay. The format is biochemical. As to conditions: recombinant human LSD1 (172–852 aa) 2 nM, Bio-H3K4me2 substrate, 1 h, TR-FRET; mean ± SD, n = 3. An excerpt:
These were utilized in both in vitro and in vivo assays. Iscove’s Modified Dulbecco’s Medium (IMDM), Roswell Park Memorial Institute (RPMI)-1640 medium, fetal bovine serum (FBS) and penicillin/streptomycin were purchased from Gibco (Grand Island, New Nork, United States). Recombinant human LSD1 (172–852 aa) and full-length LSD2 were obtained from Sino Biological Inc. and ActiveMotif.
The inhibitory effects of the tested compounds on LSD1 and LSD2 enzymes were methodically assessed using the Lance Ultra LSD1 Histone H3-Lysine 4 Demethylase Assay Kit from PerkinElmer, adhering to previously published methodologies ([Li et al., 2022]). In brief, the reaction was initiated by adding 4 μL of enzyme solution, with concentrations specified at 2 nM for LSD1 or 172 nM for LSD2, 4 μL of substrate solution [2.5 μM Bio-H3K4me2 ([…])], and 2 μL of tested compound to a Tris buffer (50 mM Tris-HCl, 50 mM NaCl, 0.01% Tween 20, 1 mM DTT, 10 μM FAD, 10% glycerol, pH 9.0) at room temperature and incubated for 1 h. Following the incubation, 5 μL of a detection mixture, comprising an Eu-labeled H3K4me0 antibody and ULight Streptavidin, was added to the reaction. The fluorescence intensity was then measured employing TR-FRET mode with excitation and emission wavelengths set at 320 nm and 665 nm, respectively, utilizing the Envision (PerkinElmer) system. Each experiment was performed in triplicate.

In data set [2] the test system is MOLT-4, MOLM-16, HAL-01, and HL-60. As to the kind of experiment: MTS cell proliferation assay, other AML cell lines together. Format: cell-based. The conditions noted are these: range over MOLT-4, MOLM-16, HAL-01, HL-60; read-out: IC50 across other AML cell lines. How it is done: The myeloid leukemia cell lines MV-4-11, MOLT-4, MOLM-16, HL-60, and the human B lymphocyte cell line […] were purchased from the American Type Culture Collection (ATCC, Manassas, VA, United States). The myeloid leukemia cell line HAL-01 was obtained from the Deutsche Sammlung von Mikroorganismen und Zellkulturen GmbH (DSMZ, Braunschweig, Germany). All cells were cultured in IMDM or RPMI -1640 medium supplemented with 10% FBS, 100 U/mL penicillin, and 100 μg/mL streptomycin. The cells were maintained in a humidified incubator with an atmosphere of 5% CO2 at 37°C.
The in vitro anti-proliferative activity of the compounds was determined using the CellTiter 96® AQueous NonRadioactive Cell Proliferation Assay Kit (Promega, Madison, United States) as previously described ([Ji et al., 2017]). In brief, 5–10 × 10^3 cells and 180 μL of medium were first seeded into each well of a 96-well plate. […] Finally, the optical density (OD) was then recorded at 490 nm and 690 nm using a microplate reader from Molecular Devices. […] The IC50 values of the compounds inhibiting cell proliferation were calculated using GraphPad Prism 10 (GraphPad Software Inc., San Diego, CA).

The mark [3] stands for this setting: compared to the vehicle control group.

Each structure is given as a SMILES string.

Consider `O=S(=O)(c1ccc(C(O)CO)c(C(F)(F)F)c1)N1CCc2cc(C3CC3NCC3CCNCC3)ccc21` (stereo not shown) [LTM-1], for which the “body weight of mice” value in data set [1] (10 mg/kg intraperitoneal daily, 15 days, versus vehicle group) was “no significant differences”. Further, the “liver and kidney function indices” value in data set [1] (LTM-1 treated MV-4-11 xenografted mice) is given as “did not induce significant changes”. Moreover, in data set [1] (setting [3]), the “alanine aminotransferase (ALT) level in mouse serum” value is “no significant changes”, the “aspartate aminotransferase (AST) level in mouse serum” value is “no significant changes”, the “blood urea nitrogen (BUN) level in mouse serum” value is recorded as “no significant changes” and the “creatinine (CRE) level in mouse serum” value was “no significant changes”. For the same compound, in the data set on MV-4-11 xenograft, the “tumor growth (tumor volume)” value was “significantly reduced”. Moreover, at 60 different kinases, the 50% inhibitory concentration (IC50) is above 10 µM. Moreover, at LSD1, the IC50 came to 0.00211 ± 0.00014 µM. The IC50 in data set [2] fell in the range of 0.19 to 0.39 µM.

For the origin of these results see article PMC11903733 (Frontiers in Pharmacology, 2025).
